Experimental data published in patent US9682931B2, “Aryloyl(oxy or amino)pentafluorosulfanylbenzene compound, pharmaceutically acceptable salt thereof, and prodrugs thereof” (UBE INDUSTRIES, LTD., priority 2013, dated 2017).
Converted amounts (≈) assume the structure as drawn.

Columns and labels:
[1] = system: Staphylococcus aureus MRSAIID 1677 (methicillin-resistant staphylococcus aureus; MRSA); assay: Antimicrobial test, minimum inhibitory concentration (MIC), MRSA; assay type: cell-based; details: 36±1° C., 24 hours
Protocol: Antimicrobial/Antifungal Test
Measurement of the Minimum Inhibitory Concentration (MIC) of a Test Substance
The minimum inhibitory concentration (MIC) of test substances (Compound 3, Compound 7) on a microorganism was measured.
1) Test Microbe (a) Staphylococcus aureus MRSAIID 1677 (methicillin-resistant staphylococcus aureus; MRSA) (b) Trichophyton mentagrophytes NBRC5466 (trichophyton)
2) Preparation of Microbe Solution for Inoculation
Test microbe (a): A strain cryopreserved was smeared on TSA medium and cultured at 36±1° C. for 24 hours. Grown colonies were scraped out and suspended in a test organism preparation solution, filtered with absorbent cotton. The number of cells was controlled to be about 10^6-7 CFU/mL. The test microbe solution prepared was serially diluted by 10-fold and cultured at 36±1° C. for 48 hours and the microbe cells were counted.
3) Serial Dilution of Test Substance
Two-fold serial dilutions of a test substance were prepared in the following procedure. To a test substance (1 mg), a medium (5 mL) for measuring the sensitivity of each microbe strains was added to obtain a stock solution of 200 μg/mL. […]
A test microbe solution (5 μL) was added dropwise to individual wells of the microplate. […] After culture, whether the microbe proliferated or not was determined by the naked eye. […]

Topoisomerase I = target: T1, Topoisomerase I (Homo sapiens, UniProt P11387); assay: Topoisomerase I assay; assay type: biochemical; design: key to Inhibitory activity Topoisomerase I: ∘: Inhibitory activity is present; Δ: Weak inhibitory activity is present; x: No inhibitory activity is present
T1 sequence (P11387 1-765): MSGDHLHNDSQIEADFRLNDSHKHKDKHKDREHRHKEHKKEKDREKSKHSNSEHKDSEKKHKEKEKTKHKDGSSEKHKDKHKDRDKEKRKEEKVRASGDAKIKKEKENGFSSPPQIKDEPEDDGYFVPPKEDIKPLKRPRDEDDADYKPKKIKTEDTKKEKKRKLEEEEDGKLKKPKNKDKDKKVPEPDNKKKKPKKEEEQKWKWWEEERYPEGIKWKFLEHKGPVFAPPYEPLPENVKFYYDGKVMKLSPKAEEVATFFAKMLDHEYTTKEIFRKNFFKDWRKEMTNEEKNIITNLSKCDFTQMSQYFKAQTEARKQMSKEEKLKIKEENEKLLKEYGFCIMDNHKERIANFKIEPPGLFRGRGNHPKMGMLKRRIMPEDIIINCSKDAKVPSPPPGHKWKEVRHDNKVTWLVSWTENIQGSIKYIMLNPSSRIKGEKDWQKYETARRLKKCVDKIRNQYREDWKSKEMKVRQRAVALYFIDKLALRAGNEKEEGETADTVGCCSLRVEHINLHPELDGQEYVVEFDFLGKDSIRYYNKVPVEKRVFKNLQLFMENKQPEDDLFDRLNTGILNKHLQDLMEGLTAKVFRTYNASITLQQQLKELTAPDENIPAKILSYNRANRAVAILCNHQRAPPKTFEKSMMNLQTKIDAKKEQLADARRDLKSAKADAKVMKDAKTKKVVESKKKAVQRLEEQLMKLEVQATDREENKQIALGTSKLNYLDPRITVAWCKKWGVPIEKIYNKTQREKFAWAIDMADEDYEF
Protocol: (§1) The inhibitory action of a test substance (Compound 3) on Topoisomerase I and Topoisomerase II was examined.
Topoisomerase I (4 units) was subjected to the following assay performed in the assay conditions, which were determined by a preliminary examination, for a reaction time of 2 hours.
(1) An assay solution was prepared in accordance with the following table.

Topoisomerase II = target: T2, Topoisomerase II (Homo sapiens, UniProt P11388); assay: Topoisomerase II assay; assay type: biochemical; design: key to Inhibitory activity Topoisomerase II: ∘: Inhibitory activity is present; Δ: Weak inhibitory activity is present; x: No inhibitory activity is present
T2 construct: purchased
Protocol: as §1
2. Topoisomerase II Assay
Assay was performed in accordance with the attachment to Topoisomerase II Assay Kit, as follows.
(1) 10×Topo II Incomplete Assay A and 10×ATP Buffer B were mixed in equal amounts to prepare 5× Complete Assay Buffer (prepared when used).
(2) Assay solution was prepared in accordance with the following table.
(3) Incubated at 37° C. for 30 minutes (4) 5 μl of 5× Stop Buffer/gel loading dye was added (5) 1 μl of 1.3 mg/mL protease K solution (prepared with distilled water) was added (final concentration of protease K is 50 μg/mL) (6) Incubated at 37° C. for 20 minute (7) Total amount was applied to 1% agarose gel (containing EtBr) and analyzed by electrophoresis using a single concentration TAE buffer (prepared with distilled water). (8) After electrophoresis, the 1% agarose gel was stained with 0.5 μg/mL EtBr solution (prepared with single concentration TAE buffer) (9) Irradiated with UV ray and photographed.

T2 sequence (P11388 whole entry): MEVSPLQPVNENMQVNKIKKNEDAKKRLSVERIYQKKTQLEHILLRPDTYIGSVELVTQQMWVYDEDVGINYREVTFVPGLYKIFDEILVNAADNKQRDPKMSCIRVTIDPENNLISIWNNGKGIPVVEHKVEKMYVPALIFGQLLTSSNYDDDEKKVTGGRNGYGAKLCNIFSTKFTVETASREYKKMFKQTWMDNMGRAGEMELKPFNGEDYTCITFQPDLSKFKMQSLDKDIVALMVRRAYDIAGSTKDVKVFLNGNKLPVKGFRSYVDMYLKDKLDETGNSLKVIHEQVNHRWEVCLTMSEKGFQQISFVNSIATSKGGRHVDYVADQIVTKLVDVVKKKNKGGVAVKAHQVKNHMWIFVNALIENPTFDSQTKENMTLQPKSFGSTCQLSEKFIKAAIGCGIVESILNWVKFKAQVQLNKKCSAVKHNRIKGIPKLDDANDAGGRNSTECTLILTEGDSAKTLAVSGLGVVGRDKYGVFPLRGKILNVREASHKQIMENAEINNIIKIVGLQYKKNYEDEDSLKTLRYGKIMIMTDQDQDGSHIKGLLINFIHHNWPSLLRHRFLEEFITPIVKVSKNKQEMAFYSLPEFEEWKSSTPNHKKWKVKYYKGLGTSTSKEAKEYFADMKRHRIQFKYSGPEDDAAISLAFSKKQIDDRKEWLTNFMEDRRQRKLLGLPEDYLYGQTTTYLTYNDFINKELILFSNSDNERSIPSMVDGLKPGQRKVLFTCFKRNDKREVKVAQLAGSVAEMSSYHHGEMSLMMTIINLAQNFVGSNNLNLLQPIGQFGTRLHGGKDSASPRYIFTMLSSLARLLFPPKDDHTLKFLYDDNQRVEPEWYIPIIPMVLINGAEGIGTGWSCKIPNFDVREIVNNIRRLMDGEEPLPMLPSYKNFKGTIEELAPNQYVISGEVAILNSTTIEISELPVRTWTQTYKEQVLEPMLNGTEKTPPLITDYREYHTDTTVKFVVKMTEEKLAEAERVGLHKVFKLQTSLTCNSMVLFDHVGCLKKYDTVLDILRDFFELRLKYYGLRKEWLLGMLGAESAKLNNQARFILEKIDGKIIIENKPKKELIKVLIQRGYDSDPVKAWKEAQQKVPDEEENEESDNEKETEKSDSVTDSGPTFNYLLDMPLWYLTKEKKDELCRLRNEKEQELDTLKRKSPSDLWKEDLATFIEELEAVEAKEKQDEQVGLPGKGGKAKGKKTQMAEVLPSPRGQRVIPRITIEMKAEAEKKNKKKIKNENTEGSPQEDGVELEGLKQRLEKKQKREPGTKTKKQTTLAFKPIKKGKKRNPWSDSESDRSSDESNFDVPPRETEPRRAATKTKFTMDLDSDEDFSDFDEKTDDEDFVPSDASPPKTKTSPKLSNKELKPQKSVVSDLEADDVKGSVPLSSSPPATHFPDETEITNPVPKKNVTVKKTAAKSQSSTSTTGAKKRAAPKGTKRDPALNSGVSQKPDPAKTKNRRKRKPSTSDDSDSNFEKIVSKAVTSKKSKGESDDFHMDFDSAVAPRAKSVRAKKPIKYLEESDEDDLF

SMILES	MIC [1] [µg/mL]	Topoisomerase I inhibitory activity (Topoisomerase I; 500 μg/mL)	Inhibitory activity Topoisomerase I (Topoisomerase I; final concentration 0.5 μg/mL)	Inhibitory activity Topoisomerase I (Topoisomerase I; final concentration 5 μg/mL)	Inhibitory activity Topoisomerase I (Topoisomerase I; final concentration 50 μg/mL)	Inhibitory activity Topoisomerase I (Topoisomerase I; final concentration 500 μg/mL)	Topoisomerase II inhibitory activity (Topoisomerase II; 5, 50 and 500 μg/mL)	Inhibitory activity Topoisomerase II (Topoisomerase II; final concentration 0.5 μg/mL)	Inhibitory activity Topoisomerase II (Topoisomerase II; final concentration 5 μg/mL)	Inhibitory activity Topoisomerase II (Topoisomerase II; final concentration 50 μg/mL)	Inhibitory activity Topoisomerase II (Topoisomerase II; final concentration 500 μg/mL)
O=C(Nc1ccc(S(F)(F)(F)(F)F)cc1)c1cc(O)c(O)c(O)c1 [Compound 3, 4-(3,4,5-trihydroxybenzoylamino)pentafluorosulfanylbenzene]	6.3 (≈ 17 µM)	inhibitory activity was confirmed	x	x	x	∘	inhibitory activity was observed	x	∘	∘	∘
O=C(Oc1ccc(S(F)(F)(F)(F)F)cc1)c1cc(O)c(O)c(O)c1 [Compound 7, 4-(3,4,5-trihydroxybenzoyloxy)pentafluorosulfanylbenzene]	0.8 (≈ 2.15 µM)										
